The text below walks through data of publication PMC11703214 (bioRxiv, 2024).

What all share (format): cell-based
In one assay the test system is iAChSnFR. Nature of the assay: Fluorescence imaging. The note with it: read-out: EC50 (μM), normalized dose-response curves, HEK293T; n = 3.
In another assay the test system is gACh3.0. Briefly: Fluorescence imaging. The following applies: read-out: EC50 (μM), normalized dose-response curves, HEK293T; n = 3.
A further assay concerns β-arrestin pathway. Briefly: Tango assay. The following applies: ACh 0.01 nM to 100 μM.
The subject of the next assay is G protein pathway. Briefly: Luciferase complementation assay. The following applies: ACh 0.1 nM to 100 μM.

Usually EC50 stands for the concentration giving half of the maximal effect. Regarding `CC(=O)OCC[N+](C)(C)C` [ACh, acetylcholine], the EC50 was found to be 8.8 µM in the assay on iAChSnFR and 2.2 µM in the assay with gACh3.0.
As for “wild-type human M3R: wild-type human type 3 muscarinic ACh receptor, positive control for downstream coupling”, in the assay with β-arrestin pathway, the “coupling to β-arrestin pathway” value is on record as “robust coupling”. For the same molecule, in the assay on G protein pathway, the “coupling to G protein pathway” value is “robust coupling”.
